Assay results reported in the supplement of paper PMC11451515.

Test system: NOMO1
Test: cell viability relative to DMSO control; higher = less cytotoxic
Conditions: 48 h
How it was run: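 Viability values are per-plate percentages of DMSO wells, with background from cell-free wells. Library compounds in DMSO were pin-dosed, in an 11-point threefold series from 47 μM to 0.79 nM, onto NOMO1 or SEM (500 cells/well) or P12-Ichikawa (1000 cells/well) leukemia cells in 1536-well plates (5 μl). Those cells had been adapted for at least four passages in each medium, and CellTiter-Glo One luminescence was read after 48 h at 37°C.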

[1] = HPLM + 10% dialyzed FBS, 0.000781 µM
[2] = HPLM + 10% dialyzed FBS, 0.00234 µM
[3] = HPLM + 10% dialyzed FBS, 0.00702 µM
[4] = HPLM + 10% dialyzed FBS, 0.0211 µM
[5] = HPLM + 10% dialyzed FBS, 0.0632 µM
[6] = HPLM + 10% dialyzed FBS, 0.19 µM
[7] = HPLM + 10% dialyzed FBS, 0.569 µM
[8] = HPLM + 10% dialyzed FBS, 1.71 µM
[9] = HPLM + 10% dialyzed FBS, 5.12 µM
[10] = HPLM + 10% dialyzed FBS, 15.4 µM
[11] = HPLM + 10% dialyzed FBS, 46.1 µM
[12] = RPMI 5 mM glucose + 10% dialyzed FBS, 0.000781 µM
[13] = RPMI 5 mM glucose + 10% dialyzed FBS, 0.00234 µM
[14] = RPMI 5 mM glucose + 10% dialyzed FBS, 0.00702 µM
[15] = RPMI 5 mM glucose + 10% dialyzed FBS, 0.0211 µM
[16] = RPMI 5 mM glucose + 10% dialyzed FBS, 0.0632 µM
[17] = RPMI 5 mM glucose + 10% dialyzed FBS, 0.19 µM
[18] = RPMI 5 mM glucose + 10% dialyzed FBS, 0.569 µM
[19] = RPMI 5 mM glucose + 10% dialyzed FBS, 1.71 µM
[20] = RPMI 5 mM glucose + 10% dialyzed FBS, 5.12 µM
[21] = RPMI 5 mM glucose + 10% dialyzed FBS, 15.4 µM
[22] = RPMI 5 mM glucose + 10% dialyzed FBS, 46.1 µM

Row | Compound | cell viability [1] [%] | cell viability [2] [%] | cell viability [3] [%] | cell viability [4] [%] | cell viability [5] [%] | cell viability [6] [%] | cell viability [7] [%] | cell viability [8] [%] | cell viability [9] [%] | cell viability [10] [%] | cell viability [11] [%] | cell viability (RPMI 5 mM glucose + 10% FBS, 0.000781 µM) [%] | cell viability (RPMI 5 mM glucose + 10% FBS, 0.00234 µM) [%] | cell viability (RPMI 5 mM glucose + 10% FBS, 0.00702 µM) [%] | cell viability (RPMI 5 mM glucose + 10% FBS, 0.0211 µM) [%] | cell viability (RPMI 5 mM glucose + 10% FBS, 0.0632 µM) [%] | cell viability (RPMI 5 mM glucose + 10% FBS, 0.19 µM) [%] | cell viability (RPMI 5 mM glucose + 10% FBS, 0.569 µM) [%] | cell viability (RPMI 5 mM glucose + 10% FBS, 1.71 µM) [%] | cell viability (RPMI 5 mM glucose + 10% FBS, 5.12 µM) [%] | cell viability (RPMI 5 mM glucose + 10% FBS, 15.4 µM) [%] | cell viability (RPMI 5 mM glucose + 10% FBS, 46.1 µM) [%] | cell viability [12] [%] | cell viability [13] [%] | cell viability [14] [%] | cell viability [15] [%] | cell viability [16] [%] | cell viability [17] [%] | cell viability [18] [%] | cell viability [19] [%] | cell viability [20] [%] | cell viability [21] [%] | cell viability [22] [%]
1 | CC[C@]12\C=C/CN3CC[C@]4([C@@H](N(C)C5=CC(=C(C=C45)[C@]6(C[C@H]7C[C@H](CN(C7)CC8=C6[NH]C9=C8C=CC=C9)C(C)(F)F)C(=O)OC)OC)[C@](O)([C@@H]1OC(C)=O)C(=O)OC)[C@H]23 | 102 | 102 | 97.5 | 72.8 | 28.2 | 28.1 | 36 | 38.6 | 36.8 | 36.1 | 28.7 | 95 | 96.9 | 91.9 | 85.2 | 24.5 | 18.5 | 21.6 | 22.3 | 22.3 | 23.7 | 20.1 | 91.5 | 92.4 | 91.6 | 93.7 | 57.5 | 30.6 | 24.2 | 26.3 | 27.5 | 26.8 | 20.8
2 | CC[C@H](NC(=O)[C@H](C)NC)C(=O)N1C[C@@H](O)C[C@H]1Cc1c(-c2[nH]c3cc(F)ccc3c2C[C@@H]2C[C@H](O)CN2C(=O)[C@H](CC)NC(=O)[C@H](C)NC)[nH]c2cc(F)ccc12 | 113 | 112 | 123 | 114 | 126 | 110 | 89.9 | 67.3 | 22.6 | 20.3 | 21.8 |  |  |  |  |  |  |  |  |  |  |  | 113 | 122 | 145 | 150 | 150 | 128 | 115 | 106 | 17.3 | 16.2 | 12.5
